Marks after values point to notes of the source that are not given here.
Experiments:
[1] = test system: osimertinib-resistant (OR) H1975 cells; experiment: In-cell immunostaining of protein expression and phosphorylation, osimertinib-resistant H1975 cells; assay type: cell-based, human; design: HDAC 1 expression / HDAC 2 expression / HDAC 3 expression / HDAC 4 expression / HDAC 5 expression / HDAC 6 expression / HDAC 7 expression / HDAC 8 expression / HDAC 9 expression / HDAC 10 expression / HDAC 11 expression: scale not given here; conditions: 6 h
Protocol: (§1) Generation of erlotinib, afatinib and osimertinib-resistant cells. Cells were incubated in vitro with increasing concentrations of vehicle control or erlotinib or osimertinib until after ˜6 weeks the HCC827 and H1975 and H1650 cells grew with similar kinetics to sensitive cells in either erlotinib ([…]) or osimertinib ([…]), respectively. Afatinib-resistant cells were created in vivo by repeated high dosing until tumors disappeared and then regrew, as previously described.
(§2) Assessments of protein expression and protein phosphorylation. Multi-channel fluorescence HCS microscopes perform true in-cell western blotting. Three independent cultures derived from three thawed vials of cells of a tumor were sub-cultured into individual 96-well plates. Twenty-four hours after plating, the cells are transfected with a control plasmid or a control siRNA, or with an empty vector plasmid or with plasmids to express various proteins. After another 24 hours, the cells are ready for drug exposure(s). At various time-points after the initiation of drug exposure, cells are fixed in place using paraformaldehyde and using Triton X100 for permeabilization. Standard immunofluorescent blocking procedures are employed, followed by incubation of different wells with a variety of validated primary antibodies and subsequently validated fluorescent-tagged secondary antibodies are added to each well. The microscope determines the background fluorescence in the well and in parallel randomly determines the mean fluorescent intensity of 100 cells per well.

[2] = test system: osimertinib-resistant (OR) H1650 cells; experiment: In-cell immunostaining of protein expression and phosphorylation, osimertinib-resistant H1650 cells; assay type: cell-based, human; conditions: 6 h, VEH = 100
Protocol: as §1, §2

[3] = 1975 OR, GZ17-6.02 2 mM final curcumin, pemetrexed 500 nM
[4] = 1975 OR, GZ17-6.02 2 mM final curcumin, pemetrexed 500 nM, vehicle 100%
[5] = 1975 OR, GZ17-6.02, pemetrexed 500 nM, vehicle 100%

Nc1nc2[nH]cc(CCc3ccc(C(=O)N[C@@H](CCC(=O)O)C(=O)O)cc3)c2c(=O)[nH]1 [PEM, Pemetrexed]
ERK2 expression [1, 3]: 101 | HDAC 1 expression [1, 3]: 97 | HDAC 2 expression [1, 3]: 93 | HDAC 3 expression [1, 3]: 98 | HDAC 4 expression [1, 3]: 100 | HDAC 5 expression [1, 3]: 95 | HDAC 6 expression [1, 3]: 93 | HDAC 7 expression [1, 3]: 98 | HDAC 8 expression [1, 3]: 101 | HDAC 9 expression [1, 3]: 97 | HDAC 10 expression [1, 3]: 100 | HDAC 11 expression [1, 3]: 101 | ATG5 [1, 4]: 110% | Beclin1 [1, 4]: 111% | CD95 [1, 4]: 100% | CHOP [1, 4]: 107% | ERBB1 [1, 4]: 99% | ERBB2 [1, 4]: 100% | ERBB3 [1, 4]: 101% | ERBB4 [1, 4]: 100% | ERK2 [1, 4]: 100% | FAS-L [1, 4]: 110% | GRP78 [1, 4]: 115# % | P-AMPKα T172 [1, 4]: 112% | P-ATG13 S318 [1, 4]: 106% | P-ATM S1980 [1, 4]: 109% | P-B1 [1, 4]: 88% | P-B2 [1, 4]: 92% | P-B3 [1, 4]: 93% | P-B4 [1, 4]: 95% | P-ERK1/2 [1, 4]: 96% | P-JAK2 [1, 4]: 89% | P-NFκB S536 [1, 4]: 92% | P-PDGFRβ [1, 4]: 98% | P-PERK T980 [1, 4]: 101% | P-SRC Y416 [1, 4]: 90% | P-SRC Y527 [1, 4]: 112% | P-STAT3 Y705 [1, 4]: 88% | P-STAT5 Y694 [1, 4]: 87* % | P-ULK1 S317 [1, 4]: 103% | P-ULK1 S757 [1, 4]: 96% | P-c-MET [1, 4]: 88% | P-c-MT [1, 4]: 90% | P-eIF2α S51 [1, 4]: 101% | P-mTOR S2448 [1, 4]: 94% | P-mTOR S2481 [1, 4]: 92% | PDGFRβ [1, 4]: 100% | PP1 [1, 4]: 105% | c-KIT [1, 4]: 101% | c-MET [1, 4]: 100% | p70 S6K [1, 4]: 101% | p70 S6K T389 [1, 4]: 98% | JAK2 [1, 5]: 98% | P-AKT T308 [1, 5]: 87* % | BCL-XL expression ([1]; H1975 OR, VEH = 100): 90 | ERK2 expression ([1]; H1975 OR, VEH = 100): 101 | FLIP-s expression ([1]; H1975 OR, VEH = 100): 98 | MCL-1 expression ([1]; H1975 OR, VEH = 100): 84* | BCL-XL expression [2]: 85* | ERK2 expression [2]: 100 | FLIP-s expression [2]: 93 | MCL-1 expression [2]: 86*
